# Laboratory results: PubChem BioAssay AID330 (DTP/NCI, 2004)
# Values joined by “and” are separate entries in the source; they are usually repeats but may differ in a detail not shown here. Equal entries are not always repeated. Toxic doses and inconclusive results are not listed. Peptide text beside a SMILES is read from it.
# Tested on: P388 leukemia ip, CD2F1 mice, survival T/C
# Assay: NCI In Vivo Anticancer Drug Screen. Data for tumor model P388 Leukemia (intraperitoneal) in CD2F1 (CDF1) mice
# Details: endpoint: median survival time, higher = longer survival
# Summary of the method: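 Mice carrying the transplanted tumor received test compound or vehicle. Survival was recorded in each group, and the value is the treated-group measurement divided by that of the vehicle-treated control group.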
# [1] = dose: 25.0 mg/kg/injection, schedule: Q01DX009 (ip), vehicle: saline with Tween-80
# [2] = dose: 50.0 mg/kg/injection, schedule: Q01DX009 (ip), vehicle: saline with Tween-80
# [3] = dose: 25.0 mg/kg/injection, schedule: Q01DX009 (ip), vehicle: Klucel (hydroxypropylcellulose) (HPC)
# [4] = dose: 50.0 mg/kg/injection, schedule: Q01DX009 (ip), vehicle: Klucel (hydroxypropylcellulose) (HPC)
# [5] = dose: 50.0 mg/kg/injection, schedule: Q01DX005 (ip), vehicle: Klucel (hydroxypropylcellulose) (HPC)
# [6] = dose: 100.0 mg/kg/injection, schedule: Q01DX005 (ip), vehicle: Klucel (hydroxypropylcellulose) (HPC)
# [7] = dose: 200.0 mg/kg/injection, schedule: Q01DX005 (ip), vehicle: Klucel (hydroxypropylcellulose) (HPC)
# [8] = dose: 100.0 mg/kg/injection, schedule: Q01DX009 (ip), vehicle: saline with Tween-80
# [9] = dose: 100.0 mg/kg/injection, schedule: Q01DX009 (ip), vehicle: Klucel (hydroxypropylcellulose) (HPC)
# [10] = dose: 200.0 mg/kg/injection, schedule: Q01DX009 (ip), vehicle: Klucel (hydroxypropylcellulose) (HPC)
# [11] = dose: 60.0 mg/kg/injection, schedule: Q01DX005 (ip), vehicle: saline with Tween-80
# [12] = dose: 120.0 mg/kg/injection, schedule: Q01DX005 (ip), vehicle: saline with Tween-80
# [13] = dose: 240.0 mg/kg/injection, schedule: Q01DX005 (ip), vehicle: saline with Tween-80
# [14] = dose: 50.0 mg/kg/injection, schedule: Q01DX005 (ip), vehicle: saline with Tween-80
# [15] = dose: 100.0 mg/kg/injection, schedule: Q01DX005 (ip), vehicle: saline with Tween-80
# [16] = dose: 200.0 mg/kg/injection, schedule: Q01DX005 (ip), vehicle: saline with Tween-80
# [17] = dose: 50.0 mg/kg/injection, schedule: Q01DX009 (ip), vehicle: saline
# [18] = dose: 100.0 mg/kg/injection, schedule: Q01DX009 (ip), vehicle: saline
# [19] = dose: 12.5 mg/kg/injection, schedule: Q01DX009 (ip), vehicle: saline with Tween-80
# [20] = dose: 200.0 mg/kg/injection, schedule: Q01DX009 (ip), vehicle: saline with Tween-80
smiles,measurement,setting,value
CCOC(=O)Cc1c[nH]c2ccc(N(CCCl)CCCl)cc12,T/C,"dose: 5.0 mg/kg/injection, schedule: Q04DX003 (ip), vehicle: Klucel (hydroxypropylcellulose) (HPC)",204 % of control
same,T/C,"dose: 8.0 mg/kg/injection, schedule: Q04DX003 (ip), vehicle: Klucel (hydroxypropylcellulose) (HPC)",245 % of control
same,T/C,"dose: 12.5 mg/kg/injection, schedule: Q04DX003 (ip), vehicle: Klucel (hydroxypropylcellulose) (HPC)",245 % of control
CCN(CC)CCNc1ccc(C)c2sc3ccc(OC)cc3c(=O)c12,T/C,[1],115 % of control
same,T/C,[2],115 % of control and 90 % of control
O=c1c(N=Nc2ccc(S(=O)(=O)Nc3nccs3)cc2)c(O)n(-c2ccccc2)n1-c1ccccc1,T/C,"dose: 12.5 mg/kg/injection, schedule: Q01DX009 (ip), vehicle: Klucel (hydroxypropylcellulose) (HPC)",88 % of control
same,T/C,[3],87 % of control and 93 % of control
same,T/C,[4],90 % of control and 91 % of control and 92 % of control
COC(=O)C1=C(C(=O)OC)C2(c3ccccc3-c3ccccc32)C2C=CC=CN12 (stereo unspecified),T/C,[5],100 % of control
same,T/C,[6],101 % of control
same,T/C,[7],100 % of control
C[C@]12C=CC(=O)C=C1CC[C@@H]1[C@@H]2[C@@H](O)C[C@@]2(C)[C@H]1CC[C@]2(O)C(=O)COC(=O)CCC(=O)O,T/C,"dose: 66.0 mg/kg/injection, schedule: Q01DX009 (ip), vehicle: saline with Tween-80",109 % of control
same,T/C,[8],109 % of control
same,T/C,"dose: 150.0 mg/kg/injection, schedule: Q01DX009 (ip), vehicle: saline with Tween-80",109 % of control
COC(=O)C(=C(C)C)S(=O)c1ccccc1 (stereo unspecified),T/C,"dose: 12.5 mg/kg/injection, schedule: Q01DX005 (ip), vehicle: saline",102 % of control
same,T/C,"dose: 25.0 mg/kg/injection, schedule: Q01DX005 (ip), vehicle: saline",103 % of control
same,T/C,"dose: 50.0 mg/kg/injection, schedule: Q01DX005 (ip), vehicle: saline",100 % of control and 104 % of control
[N-]=[N+]=N/C=C/C(=O)OCCBr,T/C,"dose: 15.0 mg/kg/injection, schedule: Q01DX005 (ip), vehicle: saline",97 % of control
same,T/C,"dose: 30.0 mg/kg/injection, schedule: Q01DX005 (ip), vehicle: saline",103 % of control
same,T/C,"dose: 60.0 mg/kg/injection, schedule: Q01DX005 (ip), vehicle: saline",102 % of control and 97 % of control
Cc1noc2c1N=C(c1ccccc1)CC(c1ccccc1)C2 (stereo unspecified),T/C,[3],104 % of control
same,T/C,[4],104 % of control and 111 % of control
same,T/C,[9],109 % of control
same,T/C,[10],109 % of control
COc1cc(/C=C2\C(=O)C3CCN2CC3)cc(OC)c1OC,T/C,[4],96 % of control
same,T/C,[9],93 % of control
same,T/C,[10],114 % of control
O=S(=O)(c1cc(Cl)ccc1Cl)N(CCCCCN(S(=O)(=O)c1cc(Cl)ccc1Cl)S(=O)(=O)c1cc(Cl)ccc1Cl)S(=O)(=O)c1cc(Cl)ccc1Cl,T/C,[11],99 % of control
same,T/C,[12],96 % of control
same,T/C,[13],95 % of control
CC(O)C(N)C(=O)NC(Cc1ccccc1)C(N)=O (stereo not drawn) (H-Thr-Phe-NH2; configuration not given here),T/C,[14],101 % of control
same,T/C,[15],100 % of control
same,T/C,[16],103 % of control
C=C1CC(OC(=O)C(C)C)C2C(=C)C(=O)O[C@@H]2C2C(=C)[C@@H](O)CC12 (stereo partly specified),T/C,"dose: 20.0 mg/kg/injection, schedule: Q01DX005 (ip), vehicle: saline with Tween-80",102 % of control
same,T/C,"dose: 40.0 mg/kg/injection, schedule: Q01DX005 (ip), vehicle: saline with Tween-80",106 % of control
same,T/C,"dose: 80.0 mg/kg/injection, schedule: Q01DX005 (ip), vehicle: saline with Tween-80",115 % of control
NC(N)=NCCCCCC(=O)O,T/C,[17],100 % of control
same,T/C,[18],109 % of control
NC(=O)/C(N=Nc1ccccc1S(=O)(=O)O)=N/Nc1ccccc1S(=O)(=O)O,T/C,[5],100 % of control
same,T/C,[6],101 % of control and 92 % of control
same,T/C,[7],101 % of control and 94 % of control
CC(O)COCCOCCO (stereo unspecified),T/C,"dose: 100.0 mg/kg/injection, schedule: Q04DX003 (ip), vehicle: saline",100 % of control
same,T/C,"dose: 200.0 mg/kg/injection, schedule: Q04DX003 (ip), vehicle: saline",100 % of control
same,T/C,"dose: 400.0 mg/kg/injection, schedule: Q04DX003 (ip), vehicle: saline",104 % of control
NNC(=O)CNc1ccc(F)c(Cl)c1,T/C,"dose: 15.0 mg/kg/injection, schedule: Q01DX005 (ip), vehicle: saline with Tween-80",99 % of control
same,T/C,"dose: 30.0 mg/kg/injection, schedule: Q01DX005 (ip), vehicle: saline with Tween-80",96 % of control
same,T/C,[11],94 % of control and 97 % of control
same,T/C,[12],104 % of control
O=C(NC(=S)Nc1ncn[nH]1)c1ccc(Cl)c(Cl)c1,T/C,[19],104 % of control
same,T/C,[1],100 % of control
same,T/C,[2],95 % of control
same,T/C,[8],91 % of control
same,T/C,[20],92 % of control
O=C([Se][Se]C(=O)c1ccc(Cl)cc1)c1ccc(Cl)cc1,T/C,[19],99 % of control
same,T/C,[1],100 % of control
same,T/C,[2],100 % of control
same,T/C,[8],98 % of control
NCC(O)COCc1ccccc1 (stereo unspecified),T/C,"dose: 50.0 mg/kg/injection, schedule: Q04DX002 (ip), vehicle: saline with Tween-80",100 % of control
same,T/C,"dose: 100.0 mg/kg/injection, schedule: Q01DX001 (ip), vehicle: saline with Tween-80",90 % of control
same,T/C,"dose: 100.0 mg/kg/injection, schedule: Q04DX002 (ip), vehicle: saline with Tween-80",100 % of control
Cc1ccc(C(=O)CS(=O)(=O)c2ccc(C)cc2)cc1,T/C,[4],101 % of control
same,T/C,[9],98 % of control
same,T/C,[10],96 % of control
COc1ccc(C2C3CCCC(C3O)C(c3ccc(OC)cc3)N2C)cc1 (stereo unspecified),T/C,"dose: 100.0 mg/kg/injection, schedule: Q04DX003 (ip), vehicle: suspension in saline",103 % of control
same,T/C,"dose: 200.0 mg/kg/injection, schedule: Q04DX003 (ip), vehicle: suspension in saline",104 % of control
same,T/C,"dose: 400.0 mg/kg/injection, schedule: Q04DX003 (ip), vehicle: suspension in saline",100 % of control
COC(=O)C1=NNC2(c3ccccc3Sc3ccccc32)C1C(=O)OC (stereo unspecified),T/C,[5],90 % of control
same,T/C,[6],92 % of control
same,T/C,[7],90 % of control
c1ccc(-n2nc3c(c2-c2cccnc2)Cc2ccccc2-3)cc1,T/C,[14],101 % of control
same,T/C,[15],100 % of control
same,T/C,[16],98 % of control
CC(C)C(NC(=O)C1CCCN1)C(=O)O (stereo not drawn) (H-Pro-Val-OH; configuration not given here),T/C,[17],103 % of control
same,T/C,[18],99 % of control
same,T/C,"dose: 200.0 mg/kg/injection, schedule: Q01DX009 (ip), vehicle: saline",100 % of control
Nc1nc(N)c2c(n1)NCN(OCCOc1ccc(Cl)cc1Cl)C2,T/C,[11],105 % of control
same,T/C,[12],90 % of control
CC(OC(C(O)C=O)C(O)C(O)CO)C(=O)N[C@@H](C)C(=O)O (stereo partly specified),T/C,[11],101 % of control
same,T/C,[12],100 % of control
same,T/C,[13],100 % of control
CCCCCCCCCCCCCCCCS(=O)(=O)N/N=C(/c1ccccc1Cl)N1CCOCC1,T/C,[2],92 % of control
same,T/C,[8],93 % of control
same,T/C,[20],94 % of control
Cc1csc(NC(=S)NC(=O)c2ccccc2)n1,T/C,"dose: 100.0 mg/kg/injection, schedule: Q04DX003 (ip), vehicle: saline with Tween-80",91 % of control
same,T/C,"dose: 200.0 mg/kg/injection, schedule: Q04DX003 (ip), vehicle: saline with Tween-80",90 % of control
COc1ccc2c(c1)C13C(=O)OC4(C)OC(C)(CC41)C3C2=O (stereo unspecified),T/C,"dose: 100.0 mg/kg/injection, schedule: Q01DX001 (ip), vehicle: Klucel (hydroxypropylcellulose) (HPC)",98 % of control
same,T/C,"dose: 200.0 mg/kg/injection, schedule: Q01DX001 (ip), vehicle: Klucel (hydroxypropylcellulose) (HPC)",104 % of control
same,T/C,"dose: 400.0 mg/kg/injection, schedule: Q01DX001 (ip), vehicle: Klucel (hydroxypropylcellulose) (HPC)",95 % of control
COc1ccc(N=c2nc3n4c(c(Cl)cc(Cl)c4n2)NC(C(Cl)(Cl)Cl)=N3)cc1,T/C,"dose: 60.0 mg/kg/injection, schedule: Q01DX005 (ip), vehicle: Klucel + Tween-80",93 % of control
same,T/C,"dose: 120.0 mg/kg/injection, schedule: Q01DX005 (ip), vehicle: Klucel + Tween-80",92 % of control
same,T/C,"dose: 240.0 mg/kg/injection, schedule: Q01DX005 (ip), vehicle: Klucel + Tween-80",96 % of control
